Results: US20050026950A1, “Methods of therapeutic treatment using retinoids to achieve consistent bioavailability” (Allergan, Inc., priority 2003, published 2005)

How the values were obtained:
Assay type in all cases: in vivo, human
[1] = Phase 3 studies of orally administered tazarotene for psoriasis, adverse event monitoring; settings: Taz 4.5 mg
Description: A series of Phase 3 studies are conducted on orally administered tazarotene for the treatment of psoriasis. Adverse events (side effects) are monitored. In addition, published data for acitretin's side effects are also considered.

[2] = Two placebo-controlled dose-ranging safety studies of oral tazarotene in nodulocystic acne
Description: Two placebo-controlled dose-ranging studies are conducted to evaluate the safety of oral tazarotene in patients having nodulocystic acne. In the first study, patients receive orally administered tazarotene at daily doses of 0.4 mg to 2.8 mg in 96 (71+25) patients (12 weeks treatment plus 12 weeks post-treatment). In the second study, daily doses of 0.75 mg to 6 mg tazarotene are administered to 181 patients (24 weeks treatment plus 12 weeks post-treatment).

[3] = PK and PD interaction studies of oral tazarotene and oral contraceptives in healthy volunteers; settings: orally, up to 6 mg once daily
Description: It is the objective of this study to determine if there are pharmacokinetic (PK) and pharmacodynamic (PD) interactions between tazarotene and commonly prescribed oral contraceptives (OCs) when coadministered together.
Three separate clinical studies are conducted to evaluate the PK and PD interactions of oral tazarotene and OCs in healthy volunteers. Two studies evaluate daily doses of norethindrone (NE)/ethinyl estradiol (EE) with daily doses of tazarotene 1.1 mg (N=27) and 6 mg (N=29). The third study assesses the daily doses of norgestimate (NGM)/EE with daily doses of tazarotene 6 mg (N=26). OCs are administered for three consecutive menstrual cycles. Daily doses of tazarotene are started during the 2nd cycle and continued through the end of the studies. PK parameters for EE, NE, and NGM (AUC0-24 and Cmax) are determined before tazarotene dosing and after tazarotene dosing on day 6 of the 2nd and 3rd cycles. Serum concentrations of luteinizing hormone (LH) and follicle-stimulating hormone (FSH)-markers of contraceptive efficacy are also evaluated before tazarotene dosing and after tazarotene dosing on days 2, 4, and 6 of the 2nd and 3rd cycles. Serum progesterone levels are assessed on days 18 and 20 of the 2nd and 3rd cycles. […]

[4] = Studies of orally administered tazarotene for acne, adverse event monitoring; settings: combined data from Studies 1 and 2 (N = 223)
Description: Studies are conducted on orally administered tazarotene for the treatment of acne. Adverse events (side effects) are monitored.

[5] = Study 3, treated 3 months (N = 220)
[6] = Study 3, treated 6 months (N = 92)
[7] = combined data from Studies 1 and 2 (N = 348)

effect on the PK or efficacy of NE/EE and NGM/EE oral contraceptives [3]: does not affect
Compound: CCOC(=O)c1ccc(C#Cc2ccc3c(c2)C(C)(C)CCS3)nc1 [tazarotene]
Alopecia [1, 5]: 1 (0.5) number (%) of patients | Arthralgia [1, 5]: 28 (12.7) number (%) of patients | Atrophy of skin [1, 5]: 0 (0.0) number (%) of patients | Back pain [1, 5]: 7 (3.2) number (%) of patients | Cheilitis [1, 5]: 149 (67.7) number (%) of patients | Dry Skin [1, 5]: 47 (21.4) number (%) of patients | Dry mouth/Oral dryness [1, 5]: 11 (5.0) number (%) of patients | Epistaxis [1, 5]: 1 (0.5) number (%) of patients | Erythematous rash/Erythema [1, 5]: 0 (0.0) number (%) of patients | Hyperesthesia [1, 5]: 0 (0.0) number (%) of patients | Nail Disorder [1, 5]: 1 (0.5) number (%) of patients | Paresthesia [1, 5]: 3 (1.4) number (%) of patients | Paronychia/Nail disorder [1, 5]: 1 (0.5) number (%) of patients | Pruritus [1, 5]: 11 (5.0) number (%) of patients | Rhinitis [1, 5]: 0 (0.0) number (%) of patients | Rigors/Chills [1, 5]: 1 (0.5) number (%) of patients | Skin peeling/Desquamation [1, 5]: 3 (1.4) number (%) of patients | Sticky skin/Skin disorder [1, 5]: 0 (0.0) number (%) of patients | Xerophthalmia/Eye disorder [1, 5]: 3 (1.4) number (%) of patients | Alopecia [1, 6]: 5 (5.4) number (%) of patients | Arthralgia [1, 6]: 30 (32.6) number (%) of patients | Atrophy of skin [1, 6]: 0 (0.0) number (%) of patients | Back pain [1, 6]: 10 (10.9) number (%) of patients | Cheilitis [1, 6]: 65 (70.7) number (%) of patients | Dry Skin [1, 6]: 24 (26.1) number (%) of patients | Dry mouth/Oral dryness [1, 6]: 2 (2.2) number (%) of patients | Epistaxis [1, 6]: 0 (0.0) number (%) of patients | Erythematous rash/Erythema [1, 6]: 0 (0.0) number (%) of patients | Hyperesthesia [1, 6]: 0 (0.0) number (%) of patients | Nail Disorder [1, 6]: 1 (1.1) number (%) of patients | Paresthesia [1, 6]: 1 (1.1) number (%) of patients | Paronychia/Nail disorder [1, 6]: 1 (1.1) number (%) of patients | Pruritus [1, 6]: 3 (3.3) number (%) of patients | Rhinitis [1, 6]: 0 (0.0) number (%) of patients | Rigors/Chills [1, 6]: 1 (1.1) number (%) of patients | Skin peeling/Desquamation [1, 6]: 1 (1.1) number (%) of patients | Sticky skin/Skin disorder [1, 6]: 0 (0.0) number (%) of patients | Xerophthalmia/Eye disorder [1, 6]: 1 (1.1) number (%) of patients | Alopecia [1, 7]: 1 (0.3) number (%) of patients | Arthralgia [1, 7]: 60 (17.2) number (%) of patients | Atrophy of skin [1, 7]: 0 (0.0) number (%) of patients | Back pain [1, 7]: 16 (4.6) number (%) of patients | Cheilitis [1, 7]: 228 (65.5) number (%) of patients | Dry Skin [1, 7]: 82 (23.6) number (%) of patients | Dry mouth/Oral dryness [1, 7]: 11 (3.2) number (%) of patients | Epistaxis [1, 7]: 2 (0.6) number (%) of patients | Erythematous rash/Erythema [1, 7]: 2 (0.6) number (%) of patients | Hyperesthesia [1, 7]: 0 (0.0) number (%) of patients | Nail Disorder [1, 7]: 2 (0.6) number (%) of patients | Paresthesia [1, 7]: 7 (2.0) number (%) of patients | Paronychia/Nail disorder [1, 7]: 2 (0.6) number (%) of patients | Pruritus [1, 7]: 21 (6.0) number (%) of patients | Rhinitis [1, 7]: 8 (2.3) number (%) of patients | Rigors/Chills [1, 7]: 9 (2.6) number (%) of patients | Skin peeling/Desquamation [1, 7]: 3 (0.9) number (%) of patients | Sticky skin/Skin disorder [1, 7]: 1 (0.3) number (%) of patients | Xerophthalmia/Eye disorder [1, 7]: 8 (2.3) number (%) of patients | changes in urinalysis, chemistry, or hematology measures (liver function tests, triglycerides, total and HDL cholesterol) ([2]; 0.4 mg to 6 mg daily): no consistent dose-related clinically significant changes | ligament calcification, osteophyte formation, serum bone alkaline phosphatase, amino terminal telopeptides, bone density ([2]; 0.4 mg to 6 mg daily): not associated with any clinically significant | incidence of arthralgia ([2]; 2.8 mg, n=11, treatment period): 9% | incidence of asthenia ([2]; 2.8 mg, n=11, treatment period): 0% | incidence of cheilitis ([2]; 2.8 mg, n=11, treatment period): 64% | incidence of dry skin ([2]; 2.8 mg, n=11, treatment period): 18% | incidence of headache ([2]; 2.8 mg, n=11, treatment period): 9% | incidence of joint disorder ([2]; 2.8 mg, n=11, treatment period): 27% | incidence of myalgia ([2]; 2.8 mg, n=11, treatment period): 0% | severe dry skin ([2]; 3 mg and 6 mg groups): No patient has severe dry skin | Emotional lability, patients ([2]; 3 mg group): 3% | mild cheilitis ([2]; 3 mg group): 25 patients | mild dry skin ([2]; 3 mg group): 11 patients | moderate cheilitis ([2]; 3 mg group): 3 patients | moderate dry skin ([2]; 3 mg group): 2 patient | severe cheilitis ([2]; 3 mg group): 1 patient | Depression, patients ([2]; 3 mg group (2 mild, 1 severe)): 8% | incidence of arthralgia ([2]; 3 mg, n=37, treatment period): 8% | incidence of asthenia ([2]; 3 mg, n=37, treatment period): 19% | incidence of cheilitis ([2]; 3 mg, n=37, treatment period): 78% | incidence of dry skin ([2]; 3 mg, n=37, treatment period): 35% | incidence of headache ([2]; 3 mg, n=37, treatment period): 19% | incidence of joint disorder ([2]; 3 mg, n=37, treatment period): 14% | incidence of myalgia ([2]; 3 mg, n=37, treatment period): 16% | Depression, patients ([2]; 6 mg group): none | Emotional lability, patients ([2]; 6 mg group): 14% | mild cheilitis ([2]; 6 mg group): 27 patients | mild dry skin ([2]; 6 mg group): 17 patients | moderate cheilitis ([2]; 6 mg group): 6 patients | moderate dry skin ([2]; 6 mg group): 1 patient | severe cheilitis ([2]; 6 mg group): 1 patient | incidence of arthralgia ([2]; 6 mg, n=36, treatment period): 28% | incidence of asthenia ([2]; 6 mg, n=36, treatment period): 19% | incidence of cheilitis ([2]; 6 mg, n=36, treatment period): 94% | incidence of dry skin ([2]; 6 mg, n=36, treatment period): 50% | incidence of headache ([2]; 6 mg, n=36, treatment period): 36% | incidence of joint disorder ([2]; 6 mg, n=36, treatment period): 19% | incidence of myalgia ([2]; 6 mg, n=36, treatment period): 25% | patients withdrawing from either study due to adverse events ([2]; both studies, 7/277 patients including placebo): 2.5% | Cheilitis [4]: 134 (60.1) number (%) of patients | Conjunctivitis [4]: 0 (0.0) number (%) of patients | Desquamation central face/Desquamation [4]: 1 (0.4) number (%) of patients | Dry Skin [4]: 79 (35.4) number (%) of patients | Dry nose [4]: 7 (3.1) number (%) of patients | Epistaxis [4]: 6 (2.7) number (%) of patients | Fingertip peeling/Desquamation [4]: 1 (0.4) number (%) of patients | Headache [4]: 26 (11.7) number (%) of patients | Irritation of eyes [4]: 0 (0.0) number (%) of patients | Joint pain/Arthralgia [4]: 18 (8.1) number (%) of patients | Peeling/Desquamation [4]: 1 (0.4) number (%) of patients | Pruritus [4]: 10 (4.5) number (%) of patients | Rash-dermatitis/Rash [4]: 7 (3.1) number (%) of patients | Red Scaly face/Desquamation [4]: 1 (0.4) number (%) of patients | Skin fragility/Skin disorder [4]: 1 (0.4) number (%) of patients
